Experimental data taken from patent US20090306149A1, “USE OF BIARYLCARBOXAMIES IN THE TREATMENT OF HEDGEHOG PATHWAY-RELATED DISORDERS” (priority 2006, published 2009).
Where two headings read alike, the source gives them in different places.

Legend:
[1] = test system: gli-luciferase activity (Hh pathway) in TMHh12 cells; experiment: "IC50 shift" gli-luciferase reporter assay in TMHh12 cells with a small molecule Smo agonist; assay type: cell-based, mouse
Method: TM3 cells (mouse) transfected with a new proprietary reporter construct (pTA-8xGli-Luc). The pTA-8xGli-Luc reporter produces approx. 4 fold more luciferase activity than classical 8xGli-LUC. A highly responsive stable clone has been selected (TMHh12) with >10-fold signal/noise ratio and <10% CV in 384 well format.
“IC50 shift” assays in TMHh12 cells. IC50 for antagonism of gli-luciferase activity was tested in the presence of increasing concentrations of a small molecule agonist which binds to Smo with 1 nM affinity and activates the Hh pathway.
Table 1 lists the IC50 of antagonists determined in the presence of different (1 nM and 25 nM) concentrations of a small agonist of Smoothened.

[2] = target: Smoothened (Homo sapiens, UniProt Q99835); experiment: Smo binding assay, displacement of a small molecule agonist of Smoothened, filter binding format
Description: A Smo binding assay was developed using radio-labeled smoothened agonist for compound competition.
Table 1, infra; lists the IC50 for displacement of a small molecule agonist of Smoothened determined in a filter binding format.

[3] = Mus musculus, TMHh12, TMHh12 cells, 1 nM small molecule Smo agonist, read-out: Gli_luc (1 nM Smo agonist) IC50
[4] = Mus musculus, TMHh12, TMHh12 cells, 25 nM small molecule Smo agonist, read-out: Gli_luc (25 nM Smo agonist) IC50

Sequence of Smoothened (Q99835 28-787): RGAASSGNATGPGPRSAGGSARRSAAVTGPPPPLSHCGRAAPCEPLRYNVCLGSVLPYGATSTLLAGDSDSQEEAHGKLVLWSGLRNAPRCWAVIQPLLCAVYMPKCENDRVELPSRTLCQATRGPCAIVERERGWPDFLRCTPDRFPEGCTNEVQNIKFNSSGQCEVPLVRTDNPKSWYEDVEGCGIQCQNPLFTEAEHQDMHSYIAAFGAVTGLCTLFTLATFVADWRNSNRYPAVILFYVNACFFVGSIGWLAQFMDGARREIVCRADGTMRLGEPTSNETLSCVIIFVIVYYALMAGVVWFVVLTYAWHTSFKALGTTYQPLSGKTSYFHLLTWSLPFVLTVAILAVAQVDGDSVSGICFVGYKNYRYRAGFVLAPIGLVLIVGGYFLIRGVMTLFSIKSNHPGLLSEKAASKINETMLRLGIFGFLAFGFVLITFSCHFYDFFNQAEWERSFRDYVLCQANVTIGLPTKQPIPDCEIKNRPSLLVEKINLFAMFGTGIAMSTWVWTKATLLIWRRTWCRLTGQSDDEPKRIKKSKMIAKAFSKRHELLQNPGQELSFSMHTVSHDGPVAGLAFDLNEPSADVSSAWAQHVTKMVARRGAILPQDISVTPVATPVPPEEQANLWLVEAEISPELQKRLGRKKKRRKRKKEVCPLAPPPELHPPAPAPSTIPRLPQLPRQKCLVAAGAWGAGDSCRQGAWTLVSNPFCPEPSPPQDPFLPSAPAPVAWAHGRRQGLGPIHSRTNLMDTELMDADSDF

| SMILES | IC50 [1, 3] [nM] | IC50 [1, 4] [nM] | IC50 [2] [nM] | IC50 ([1]; TMHh12 cells, 1 nM small molecule Smo agonist, read-out: Gli_luc (1 nM Smo agonist) IC50) [nM] | IC50 ([1]; TMHh12 cells, 25 nM small molecule Smo agonist, read-out: Gli_luc (25 nM Smo agonist) IC50) [nM] |
| --- | --- | --- | --- | --- | --- |
| Cc1csc(CN[C@H]2Cc3ccc(NC(=O)c4cccc(C)c4-c4ccc(C(F)(F)F)cc4)cc3C2)n1 [Example 5, 6-Methyl-4′-trifluoromethyl-biphenyl-2-carboxylic acid {(S)-2-[(4-methyl-thiazol-2-ylmethyl)-amino]-indan-5-yl}-amide] | < 5 | 139 | 3 | – | – |
| Cc1cccc(C(=O)Nc2ccc3c(c2)C[C@@H](NCc2cccs2)C3)c1-c1ccc(C(F)(F)F)cc1 [Example 7] | < 5 | 141 | 14 | – | – |
| Cc1nc(CN[C@H]2Cc3ccc(NC(=O)c4cccc(C)c4-c4ccc(C(F)(F)F)cc4)cc3C2)cs1 [Example 9] | 39 | 876 | – | – | – |
| Cc1cccc(C(=O)Nc2ccc3c(c2)C[C@@H](NCc2scnc2C)C3)c1-c1ccc(C(F)(F)F)cc1 [Example 10] | 290 | 1340 | 137 | – | – |
| Cc1cccc(C(=O)Nc2ccc3c(c2)C[C@@H](NCc2ccco2)C3)c1-c1ccc(C(F)(F)F)cc1 [Example 11] | < 5 | 371 | 14 | – | – |
| Cc1ccc(CN[C@H]2Cc3ccc(NC(=O)c4cccc(C)c4-c4ccc(C(F)(F)F)cc4)cc3C2)o1 [Example 12] | < 5 | 141 | 4 | – | – |
| Cc1cccc(C(=O)Nc2ccc3c(c2)C[C@@H](NCc2ccc(Cl)o2)C3)c1-c1ccc(C(F)(F)F)cc1 [Example 14] | < 5 | 37 | 1 | – | – |
| Cc1cccc(C(=O)Nc2ccc3c(c2)C[C@@H](NCc2cncn2C)C3)c1-c1ccc(C(F)(F)F)cc1 [Example 16] | 592 | 3700 | – | – | – |
| Cc1cccc(C(=O)Nc2ccc3c(c2)C[C@@H](NCc2ncc[nH]2)C3)c1-c1ccc(C(F)(F)F)cc1 [Example 17] | 1370 | 15500 | – | – | – |
| Cc1cccc(C(=O)Nc2ccc3c(c2)C[C@@H](NCc2nccn2C)C3)c1-c1ccc(C(F)(F)F)cc1 [Example 18] | 39 | 876 | – | – | – |
| Cc1cccc(C(=O)Nc2ccc3c(c2)C[C@H](NCc2ccccc2)C3)c1-c1ccc(C(F)(F)F)cc1 [Example 27] | 12 | 605 | – | – | – |
| Cc1cccc(C(=O)Nc2ccc3c(c2)C[C@@H](NCC2CCOC2)C3)c1-c1ccc(C(F)(F)F)cc1 (stereo partly shown) [Example 33] | 4530 | 16400 | – | – | – |
| Cc1cc(C)c(-c2ccc(C(F)(F)F)cc2)c(C(=O)Nc2ccc3c(c2)CC(NCc2ccsc2)C3)c1 (stereo not shown) [Example 35] | – | – | 208 | – | – |
| O=C(Nc1ccc2c(c1)CC(NCc1ccccn1)C2)c1cccc(C(F)(F)F)c1-c1ccc(C(F)(F)F)cc1 (stereo not shown) [Example 37] | 2980 | 11000 | – | – | – |
| O=C(Nc1ccc2c(c1)CCC2NCc1cccs1)c1ccccc1-c1ccc(C(F)(F)F)cc1 (stereo not shown) [Example 39] | 686 | 3720 | – | – | – |
| COC(=O)C1(CNC2Cc3ccc(NC(=O)c4ccccc4-c4ccc(C(F)(F)F)cc4)cc3C2)CCCC1 (stereo not shown) [Example 42] | 2580 | – | – | – | – |
| O=C(Nc1ccc2c(c1)C[C@@H](NCc1ccccn1)C2)c1cccc(C(F)(F)F)c1-c1ccc(C(F)(F)F)cc1 [Example 46] | 831 | 3850 | – | – | – |
| O=C(Nc1ccc2c(c1)CC(NCc1ccccn1)C2)c1cccc(C(F)(F)F)c1-c1ccc(C(F)(F)F)cc1 (stereo not shown) [Example 47] | – | – | – | 1570 | 5960 |
| Cc1cccc(C(=O)Nc2ccc3c(c2)CC(NCc2cccs2)C3)c1-c1ccc(C(F)(F)F)cc1 (stereo not shown) [Example 52] | 40 | 598 | – | – | – |
| Cc1cccc(C(=O)Nc2ccc3c(c2)CC(NCc2ccccc2)C3)c1-c1ccc(C(F)(F)F)cc1 (stereo not shown) [Example 55] | 91 | 995 | – | – | – |
| Cc1cccc(C(=O)Nc2ccc3c(c2)CC(NCc2nccs2)C3)c1-c1ccc(C(F)(F)F)cc1 (stereo not shown) [Example 72] | 38 | 667 | – | – | – |
| Cc1cccc(C(=O)Nc2ccc3c(c2)CC(NC(=O)c2ccccc2)C3)c1-c1ccc(C(F)(F)F)cc1 (stereo not shown) [Example 76] | 772 | 1250 | – | – | – |

| SMILES | IC50 [1, 3] [nM] | IC50 [1, 4] [nM] | IC50 [2] [nM] | IC50 ([1]; TMHh12 cells, 1 nM small molecule Smo agonist, read-out: Gli_luc (1 nM Smo agonist) IC50) [nM] | IC50 ([1]; TMHh12 cells, 25 nM small molecule Smo agonist, read-out: Gli_luc (25 nM Smo agonist) IC50) [nM] |
| --- | --- | --- | --- | --- | --- |
| CN(C)CC(=O)NC1Cc2ccc(NC(=O)c3ccccc3-c3ccc(C(F)(F)F)cc3)cc2C1 (stereo not shown) [Example 77] | 1410 | 12400 | – | – | – |
| O=C(COc1ccccc1)NC1Cc2ccc(NC(=O)c3ccccc3-c3ccc(C(F)(F)F)cc3)cc2C1 (stereo not shown) [Example 78] | 1890 | – | – | – | – |
| COc1cccc(C(=O)Nc2ccc3c(c2)CC(NC(=O)c2ccccc2)C3)c1-c1ccc(C(F)(F)F)cc1 (stereo not shown) [Example 79] | 1330 | – | – | – | – |
| Cc1cccc(C(=O)Nc2ccc3c(c2)C[C@H](NC(=O)c2ccno2)C3)c1-c1ccc(C(F)(F)F)cc1 [Example 80] | 3270 | – | – | – | – |
| CCOC(=O)NC1Cc2ccc(NC(=O)c3ccccc3-c3ccc(C(F)(F)F)cc3)cc2C1 (stereo not shown) [Example 81] | 1330 | – | – | – | – |
| CCOC(=O)N[C@H]1Cc2ccc(NC(=O)c3cccc(C)c3-c3ccc(C(F)(F)F)cc3)cc2C1 [Example 82] | 1510 | 9030 | – | – | – |
| CCOC(=O)NC1Cc2ccc(NC(=O)c3cccc(OC)c3-c3ccc(C(F)(F)F)cc3)cc2C1 (stereo not shown) [Example 83] | 715 | 9730 | – | – | – |
| Cc1cccc(C(=O)Nc2ccc3c(c2)CC(NS(=O)(=O)c2ccc(Cl)s2)C3)c1-c1ccc(C(F)(F)F)cc1 (stereo not shown) [Example 85] | – | – | 12 | – | – |
| CCCCS(=O)(=O)NC1Cc2ccc(NC(=O)c3cccc(C)c3-c3ccc(C(F)(F)F)cc3)cc2C1 (stereo not shown) [Example 86] | – | – | 265 | – | – |
| O=C(Nc1ccc2c(c1)CC(NS(=O)(=O)NC1CCCCC1)C2)c1ccccc1-c1ccc(C(F)(F)F)cc1 (stereo not shown) [Example 87] | 2070 | 2580 | – | – | – |
| O=C(Nc1ccc2c(c1)C[C@H](NS(=O)(=O)c1ccccc1)C2)c1ccccc1-c1ccc(C(F)(F)F)cc1 [Example 89] | 202 | – | – | – | – |
| O=C(Nc1ccc2c(c1)CC(NS(=O)(=O)c1cccs1)C2)c1ccc(F)cc1-c1ccc(C(F)(F)F)cc1 (stereo not shown) [Example 90] | 5440 | – | – | – | – |
| O=C(Nc1ccc2c(c1)CC(NS(=O)(=O)c1cccs1)C2)c1cccc(F)c1-c1ccc(C(F)(F)F)cc1 (stereo not shown) [Example 91] | 59 | 16300 | – | – | – |
| CCCS(=O)(=O)NC1Cc2ccc(NC(=O)c3cccc(C)c3-c3ccc(C(F)(F)F)cc3)cc2C1 (stereo not shown) [Example 93] | 3390 | – | – | – | – |
| Cc1cccc(C(=O)Nc2ccc3c(c2)CC(NS(=O)(=O)c2cccs2)C3)c1-c1ccc(F)cc1 (stereo not shown) [Example 94] | 6630 | – | – | – | – |
| Cc1cccc(C(=O)Nc2ccc3c(c2)CC(NS(=O)(=O)c2cccs2)C3)c1-c1ccc(C(F)(F)F)cc1 (stereo not shown) [Example 95] | 1420 | – | – | – | – |
| O=C(Nc1ccc2c(c1)CC(NS(=O)(=O)c1ccccc1)C2)c1ccccc1-c1ccc(Cl)cc1 (stereo not shown) [Example 96] | 1480 | – | – | – | – |
| O=C(Nc1ccc2c(c1)CC(NS(=O)(=O)c1cccs1)C2)c1c(F)cccc1-c1ccc(C(F)(F)F)cc1 (stereo not shown) [Example 97] | 1360 | – | – | – | – |
| Cc1cccc(C(=O)Nc2ccc3c(c2)CC(NS(=O)(=O)c2ccc(Cl)cc2)C3)c1-c1ccc(C(F)(F)F)cc1 (stereo not shown) [Example 98] | 324 | 24400 | – | – | – |
| O=C(Nc1ccc2c(c1)CC(NS(=O)(=O)c1ccc(F)cc1)C2)c1ccccc1-c1ccc(C(F)(F)F)cc1 (stereo not shown) [Example 99] | 1050 | – | – | – | – |
| Cc1cccc(C(=O)Nc2ccc3c(c2)C[C@@H](NS(=O)(=O)c2ccccn2)C3)c1-c1ccc(C(F)(F)F)cc1 [Example 101] | 904 | 14100 | – | – | – |
